In US12528801B2 (Givaudan SA, priority 2019, dated 2026):

What was measured:
[1] = test system: trained group of panelists; test: Sensory studies in aqueous solution (trained panel, mouth swill); type: in vivo, human; settings: 10 ppm in aqueous solution; for Time of max. cooling / Max. cooling: 20 mL swilled in the mouth for 60 seconds; for Max. cooling / Cooling after 1 h: panel-averaged cooling score, scale 0 to 10; for Cooling after 1 h: 1 h after swilling
Method: The compounds as listed below in Table 2 were dissolved at a concentration of 1 wt-% in propylene glycol. These solutions were then dispensed in appropriate quantities into deionized water containing 0.5 wt-% Poloxamer 407 (which is a hydrophilic non-ionic surfactant, e.g., commercially available from SigmaAldrich) and 0.25 wt-% Cremaphor® RH40 (obtained from BASF) as solubilizer, to obtain the desired final concentration of 10 ppm (parts per million) of the respective compound.
A trained group of panelists evaluated the aqueous solutions containing test compound by swilling 20 mL of the solution in the mouth for 60 seconds, followed by spitting, without rinsing the mouth afterwards for the duration of the evaluation. Panelists evaluated and recorded the cooling performance as well as other sensorial and organoleptic attributes at different timepoints over a period of two hours. Cooling performance was rated on a scale from 0 to 10 with 0 being no effect and 10 being freezing. Scores were averaged for all panelists and the cooling intensity qualified as “none” (score of 0), “low” (score above 0, up to 1), “medium” (score above 1, up to 4) “strong” (score above 4, up to 8) and “freezing” (score above 8), which are provided in Table 2.

hTRPM8 = target: T1, hTRPM8 (Homo sapiens, UniProt Q7Z2W7); test: Assay on TRPM8 modulators: calcium imaging (Fluo-4, Flexstation) in HEK293 cell line stably expressing hTRPM8; type: cell-based; settings: HEK293 cells stably expressing hTRPM8; calcium influx, Fluo-4, Flexstation 3; sigmoidal dose-response fit
T1 construct: expressed in transfected cells
Summary of the method: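 HEK293 cells stably expressing hTRPM8 were loaded with Fluo-4 AM plus probenecid and kept in HEPES buffer, pH 7.4. Calcium influx to serially diluted compounds was recorded for 120 s. Maximal activation was referenced to solvent control and 31.6 μM menthol, with EC values from sigmoidal dose-response fits.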

T1 sequence (Q7Z2W7 whole entry): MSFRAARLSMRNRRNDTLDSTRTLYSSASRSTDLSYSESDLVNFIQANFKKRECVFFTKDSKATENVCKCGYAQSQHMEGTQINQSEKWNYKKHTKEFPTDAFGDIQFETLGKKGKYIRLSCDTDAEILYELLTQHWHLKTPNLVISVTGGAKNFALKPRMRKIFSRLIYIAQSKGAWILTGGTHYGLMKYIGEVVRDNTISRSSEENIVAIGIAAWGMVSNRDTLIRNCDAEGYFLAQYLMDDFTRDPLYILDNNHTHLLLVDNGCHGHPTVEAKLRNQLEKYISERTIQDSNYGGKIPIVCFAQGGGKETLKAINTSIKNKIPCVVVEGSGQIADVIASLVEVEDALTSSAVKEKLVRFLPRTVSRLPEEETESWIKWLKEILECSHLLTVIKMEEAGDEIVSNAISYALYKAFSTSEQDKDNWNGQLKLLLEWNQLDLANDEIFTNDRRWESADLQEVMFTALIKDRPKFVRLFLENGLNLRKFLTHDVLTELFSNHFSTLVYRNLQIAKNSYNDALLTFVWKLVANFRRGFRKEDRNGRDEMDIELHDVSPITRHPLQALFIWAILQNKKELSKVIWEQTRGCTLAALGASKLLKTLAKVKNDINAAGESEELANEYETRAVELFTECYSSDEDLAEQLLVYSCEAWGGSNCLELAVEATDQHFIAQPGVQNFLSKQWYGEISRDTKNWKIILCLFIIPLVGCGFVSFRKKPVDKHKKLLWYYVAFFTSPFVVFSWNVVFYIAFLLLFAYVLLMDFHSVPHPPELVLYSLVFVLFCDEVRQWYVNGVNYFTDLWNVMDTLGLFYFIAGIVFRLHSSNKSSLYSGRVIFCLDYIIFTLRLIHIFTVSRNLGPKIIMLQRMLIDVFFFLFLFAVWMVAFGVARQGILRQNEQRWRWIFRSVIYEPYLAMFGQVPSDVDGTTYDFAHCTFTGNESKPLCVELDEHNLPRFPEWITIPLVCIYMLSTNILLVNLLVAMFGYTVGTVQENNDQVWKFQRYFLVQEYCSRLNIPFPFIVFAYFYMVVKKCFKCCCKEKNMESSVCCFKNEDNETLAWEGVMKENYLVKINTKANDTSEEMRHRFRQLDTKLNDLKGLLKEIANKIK

SMILES	EC50 (hTRPM8) [nM]	further results
CSC(C)C(=O)N1CCCCC1c1ncc(-c2ccccc2)[nH]1 (stereo not drawn) [Compound 135, 2-(methylthio)-1-(2-(5-phenyl-1H-imidazol-2-yl)piperidin-1-yl)propan-1-one]	< 50	Time of max. cooling [1]: 10 min; Max. cooling [1]: M (M = medium); Cooling after 1 h [1]: L (L = Low)
CSC(C)C(=O)N1CCCCC1c1ncc(-c2ccc(C)s2)[nH]1 (stereo not drawn) [Compound 127, 2-(methylthio)-1-(2-(5-(5-methylthiophen-2-yl)-1H-imidazol-2-yl)piperidin-1-yl)propan-1-one]	< 50	Time of max. cooling [1]: 10 min; Max. cooling [1]: S (S = Strong); Cooling after 1 h [1]: M (M = medium)
CSC(C)C(=O)N1CCCCC1c1nc(-c2ccc(C(F)(F)F)s2)c[nH]1 (stereo not drawn) [Compound 109, 2-(methylthio)-1-(2-(4-(5-(trifluoromethyl)thiophen-2-yl)-1H-imidazol-2-yl)piperidin-1-yl)propan-1-one]	< 50	–
C[C@H](C(=O)N1CCCCC1c1nc(-c2ccccc2)c[nH]1)N(C)C (stereo partly drawn) [Compound 94, (2R)-2-(dimethylamino)-1-(2-(4-phenyl-1H-imidazol-2-yl)piperidin-1-yl)propan-1-one]	300 to 1000	–
COC(C)C(=O)N1CCCCC1c1nc(-c2ccccc2)c[nH]1 (stereo not drawn) [Compound 159, 2-methoxy-1-(2-(4-phenyl-1H-imidazol-2-yl)piperidin-1-yl)propan-1-one]	1000 to 35000	–
CSC(C)C(=O)N1CCCCC1c1ncc(-c2ccc(F)cc2F)[nH]1 (stereo not drawn) [Compound 54, 1-(2-(5-(2,4-difluorophenyl)-1H-imidazol-2-yl)piperidin-1-yl)-2-(methylthio)propan-1-one]	< 50	–
CCC(C)C(=O)N1CCCCC1c1ncc(-c2ccccc2C)[nH]1 (stereo not drawn) [Compound 200, 2-methyl-1-(2-(5-(o-tolyl)-1H-imidazol-2-yl)piperidin-1-yl)butan-1-one]	50 to 300	–
CSC(C)C(=O)N1CCCCC1c1nc(-c2cc(F)cc(F)c2)c[nH]1 (stereo not drawn) [Compound 26, 1-(2-(4-(3,5-difluorophenyl)-1H-imidazol-2-yl)piperidin-1-yl)-2-(methylthio)propan-1-one]	< 50	–
Cc1ccc(-c2cnc(C3CCCCN3C(=O)C(C)[S+](C)[O-])[nH]2)cc1 (stereo not drawn) [Compound 101, 2-(methylsulfinyl)-1-(2-(5-(p-tolyl)-1H-imidazol-2-yl)piperidin-1-yl)propan-1-one]	50 to 300	–
C=CC(C)(C)C(=O)N1CCCCC1c1ncc(-c2ccc(C)cc2)[nH]1 (stereo not drawn) [Compound 142, 2,2-dimethyl-1-(2-(5-(p-tolyl)-1H-imidazol-2-yl)piperidin-1-yl)but-3-en-1-one]	< 50	–
CSC(C)C(=O)N1CCCCC1c1nc(-c2cccc(C#N)c2)c[nH]1 (stereo not drawn) [Compound 174, 3-(2-(1-(2-(methylthio)propanoyl)piperidin-2-yl)-1H-imidazol-4-yl)benzonitrile]	50 to 300	–
CSC(C)C(=O)N1CCCCC1c1ncc(-c2cccc(F)c2)[nH]1 (stereo not drawn) [Compound 66, 1-(2-(5-(3-fluorophenyl)-1H-imidazol-2-yl)piperidin-1-yl)-2-(methylthio)propan-1-one]	< 50	–
O=C(CSC(F)(F)F)N1CCCCC1c1nc(-c2ccccc2)c[nH]1 (stereo not drawn) [Compound 48, 1-(2-(4-phenyl-1H-imidazol-2-yl)piperidin-1-yl)-2-((trifluoromethyl)thio)ethan-1-one]	1000 to 35000	–
CC(C(=O)N1CCCCC1c1nc(-c2ccccc2)c[nH]1)c1ccco1 (stereo not drawn) [Compound 97, 2-(furan-2-yl)-1-(2-(4-phenyl-1H-imidazol-2-yl)piperidin-1-yl)propan-1-one]	50 to 300	–
O=C(N1CCCCC1c1nc(-c2ccccc2)c[nH]1)C12CC(C1)C2 (stereo not drawn) [Compound 184, bicyclo[1.1.1]pentan-1-yl(2-(4-phenyl-1H-imidazol-2-yl)piperidin-1-yl)methanone]	300 to 1000	–
CSC(C)C(=O)N1CCCCC1c1ncc(-c2ccc([N+](=O)[O-])cc2)[nH]1 (stereo not drawn) [Compound 192, 2-(methylthio)-1-(2-(5-(4-nitrophenyl)-1H-imidazol-2-yl)piperidin-1-yl)propan-1-one]	< 50	–
CSC(C)C(=O)N1CCCCC1c1ncc(-c2ccccc2C(F)(F)F)[nH]1 (stereo not drawn) [Compound 119, 2-(methylthio)-1-(2-(5-(2-(trifluoromethyl)phenyl)-1H-imidazol-2-yl)piperidin-1-yl)propan-1-one]	300 to 1000	–
CSC(C)C(=O)N1CCCCC1c1nc(-c2ccc(C#N)cc2)c[nH]1 (stereo not drawn) [Compound 181, 4-(2-(1-(2-(methylthio)propanoyl)piperidin-2-yl)-1H-imidazol-4-yl)benzonitrile]	< 50	–
CSC(C)C(=O)N1CCCCC1c1ncc(-c2ccc3c(c2)OCO3)[nH]1 (stereo not drawn) [Compound 85, 1-(2-(5-(benzo[d][1,3]dioxol-5-yl)-1H-imidazol-2-yl)piperidin-1-yl)-2-(methylthio)propan-1-one]	< 50	–
C/C=C(\C)C(=O)N1CCCCC1c1ncc(-c2ccc(F)c(F)c2)[nH]1 (stereo not drawn) [Compound 8, (E)-1-(2-(5-(3,4-difluorophenyl)-1H-imidazol-2-yl)piperidin-1-yl)-2-methylbut-2-en-1-one]	50 to 300	–
CSC(C)C(=O)N1CCCCC1c1nc(-c2ccc(C(F)(F)F)o2)c[nH]1 (stereo not drawn) [Compound 108, 2-(methylthio)-1-(2-(4-(5-(trifluoromethyl)furan-2-yl)-1H-imidazol-2-yl)piperidin-1-yl)propan-1-one]	< 50	–
CC(C)=CC(=O)N1CCCCC1c1nc(-c2ccccc2)c[nH]1 (stereo not drawn) [Compound 179, 3-methyl-1-(2-(4-phenyl-1H-imidazol-2-yl)piperidin-1-yl)but-2-en-1-one]	1000 to 35000	–
COC(=O)c1ccc(-c2cnc(C3CCCCN3C(=O)C(C)SC)[nH]2)cc1 (stereo not drawn) [Compound 188, methyl 4-(2-(1-(2-(methylthio)propanoyl)piperidin-2-yl)-1H-imidazol-5-yl)benzoate]	50 to 300	–
CSC(C)C(=O)N1CCCCC1c1ncc(-c2ccc(CN)cc2)[nH]1 (stereo not drawn) [Compound 71, 1-(2-(5-(4-(aminomethyl)phenyl)-1H-imidazol-2-yl)piperidin-1-yl)-2-(methylthio)propan-1-one]	< 50	–
